Reference: ChEMBL document CHEMBL4359924, “Discovery of a novel 3,4-dimethylcinnoline carboxamide M4 positive allosteric modulator (PAM) chemotype via scaffold hopping” (Bioorg Med Chem Lett, 2019)

Experiments:
[1] = Fraction unbound in human plasma; format: ADME, cell-free
[2] = Fraction unbound in rat plasma; format: ADME, cell-free
[3] = Fraction unbound in rat brain; format: ADME, tissue-based
[4] = Intrinsic clearance in rat microsomes; format: ADME, Microsome
[5] = Unbound brain to plasma concentration ratio in Sprague-Dawley rat at 0.2 mg/kg, iv measured for 0.25 hrs; format: ADME, organism-based; settings: brain and plasma, read-out: K(p,uu,brain)
[6] = target: Muscarinic acetylcholine receptor M4 (Homo sapiens) (UniProt P08173); assay: Positive allosteric modulation of human M4 receptor expressed in CHO cells co-expressing Gqi5 assessed as increase in acetylcholine-induced calcium mobilization incubated with EC20 ACh for 140 secs and subsequent EC80 Ach addition further incubated for 120 secs by Fluo-4-AM dye based fluorescence …
Sequence of Muscarinic acetylcholine receptor M4 (Homo sapiens) (P08173 whole entry, looked up): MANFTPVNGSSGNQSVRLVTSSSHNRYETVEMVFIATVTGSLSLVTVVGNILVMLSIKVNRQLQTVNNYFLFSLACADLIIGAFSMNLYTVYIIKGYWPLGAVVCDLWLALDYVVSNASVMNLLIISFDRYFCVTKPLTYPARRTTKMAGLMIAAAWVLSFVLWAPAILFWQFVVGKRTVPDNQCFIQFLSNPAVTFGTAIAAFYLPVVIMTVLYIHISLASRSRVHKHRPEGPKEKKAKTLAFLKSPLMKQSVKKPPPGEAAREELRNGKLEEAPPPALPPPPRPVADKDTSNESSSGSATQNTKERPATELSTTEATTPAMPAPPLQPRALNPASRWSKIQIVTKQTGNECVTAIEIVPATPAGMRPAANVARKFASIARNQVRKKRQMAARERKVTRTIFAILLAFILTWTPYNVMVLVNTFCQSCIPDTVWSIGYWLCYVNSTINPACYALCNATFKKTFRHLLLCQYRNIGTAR

[7] = Intrinsic clearance in human microsomes; format: ADME, Microsome
[8] = Brain to plasma partition coefficient, Kp of the compound in Sprague-Dawley rat at 0.2 mg/kg, iv measured for 0.25 hrs; format: ADME, organism-based; settings: brain and plasma

| fraction unbound [1] | fraction unbound [2] | fraction unbound [3] | CLint scaled [4] [mL/min/kg] | Kp uu at 0.25 h [5] | Emax [6] [%] | CLint scaled [7] [mL/min/kg] | Kp at 0.25 h [8] | SMILES |
| --- | --- | --- | --- | --- | --- | --- | --- | --- |
| 0.03 | 0.008 | 0.042 | 17 | 0.21 | 72 | 63 | 0.04 | Cc1nnc2ccc(C(=O)NC3CN(c4ncc(C#N)cc4Cl)C3)cc2c1C |
| – | – | – | – | – | 84 | – | – | Cc1nnc2ccc(C(=O)NC3CN(c4cccc(F)n4)C3)cc2c1C |
| 0.051 | 0.002 | 0.022 | 26 | < 0.56 | 82 | 50 | < 0.05 | Cc1nnc2ccc(C(=O)NC3CN(c4ccc(F)c(F)c4)C3)cc2c1C |
| – | – | – | – | – | 81 | – | – | Cc1nnc2ccc(C(=O)NC3CN(c4ccc(C#N)cn4)C3)cc2c1C |
| – | – | – | – | – | 81 | – | – | Cc1nnc2ccc(C(=O)NC3CN(c4ccc(OC(F)F)nc4)C3)cc2c1C |
| – | – | – | – | – | 80 | – | – | Cc1nnc2ccc(C(=O)NC3CN(c4cnc(C5CC5)cn4)C3)cc2c1C |
| – | – | – | – | – | 77 | – | – | Cc1nnc2ccc(C(=O)NC3CN(c4ncc(C5CC5)cc4Cl)C3)cc2c1C |
| 0.038 | 0.012 | 0.023 | 17 | 0.02 | 74 | 34 | 0.09 | COc1cc(N2CC(NC(=O)c3ccc4nnc(C)c(C)c4c3)C2)c(Cl)cn1 |
| 0.06 | 0.017 | 0.036 | 32 | 0.06 | 92 | 60 | 0.03 | Cc1nnc2ccc(C(=O)NC3CN(c4cc(Cl)ncc4Cl)C3)cc2c1C |
| – | – | – | – | – | 64 | – | – | Cc1nnc2ccc(C(=O)NC3CN(c4cccc(C(F)(F)F)n4)C3)cc2c1C |
| – | – | – | – | – | 83 | – | – | Cc1nnc2ccc(C(=O)NC3CN(c4ncccc4F)C3)cc2c1C |
| – | – | – | – | – | 77 | – | – | Cc1nnc2ccc(C(=O)NC3CN(c4cccc(Cl)n4)C3)cc2c1C |
| – | – | – | – | – | 76 | – | – | Cc1nnc2ccc(C(=O)NC3CN(c4ncc(C(F)(F)F)cc4Cl)C3)cc2c1C |
| 0.032 | 0.026 | 0.009 | 12 | 0.09 | 82 | 54 | 0.03 | Cc1nnc2ccc(C(=O)NC3CN(c4ncc(Cl)cc4F)C3)cc2c1C |
| 0.048 | 0.015 | 0.036 | 17 | 0.29 | 80 | 79 | 0.12 | Cc1nnc2ccc(C(=O)NC3CN(c4ncc(F)cc4Cl)C3)cc2c1C |
| – | – | – | – | – | 84 | – | – | Cc1nnc2ccc(C(=O)NC3CN(c4ncccc4Cl)C3)cc2c1C |
| – | – | – | – | – | 88 | – | – | Cc1nnc2ccc(C(=O)NC3CN(c4ncc(OC(C)C)cn4)C3)cc2c1C |
| – | – | – | – | – | 77 | – | – | Cc1nnc2ccc(C(=O)NC3CN(c4ncc(C(F)(F)F)cn4)C3)cc2c1C |
| – | – | – | – | – | 73 | – | – | Cc1nnc2ccc(C(=O)NC3CN(c4ccc(Cl)cn4)C3)cc2c1C |
